Results taken from article PMC11124341, “4-Hydroxybenzoic Acid-Based Hydrazide–Hydrazones as Potent Growth Inhibition Agents of Laccase-Producing Phytopathogenic Fungi That Are Useful in the Protection of Oilseed Crops” (Molecules, 2024).

Key:
[1] = molecular target: laccase from Trametes versicolor; details: read-out: Laccase inhibition, Ki; cited from earlier work
MCF-10A cells = assay: Antiproliferative assay in vitro (SRB); type: cell-based, human; details: Homo sapiens, MCF-10A; 72 h exposure, SRB method; read-out: Average IC50 ± SD, MCF-10A line
Protocol: Antiproliferative tests were performed on a normal human breast cell line, MCF-10A, and a mouse embryonic fibroblast: Balb/3T3. Both cell lines were obtained from the American Type Culture Collection (Rockville, MD, USA). The cell lines were maintained in the Institute of Immunology and Experimental Therapy, Wroclaw, Poland. MCF-10A cells were cultured in the F-12 nutrient mixture (Gibco, Scotland, UK), supplemented with 5% horse serum (Gibco, Scotland, UK), […] (Vibrio cholerae Pacini), 10 μg/mL of hydrocortisone and 20 ng/mL of human epidermal growth factor (all from Sigma-Aldrich, Chemie GmbH, Steinheim, Germany). Balb/3T3 cells were cultured in Dulbecco medium (Gibco, Darmstadt, Germany) supplemented with 10% fetal bovine serum (Thermo Fisher Scientific, Waltham, MA, USA) and 2 mM l-glutamine (Sigma-Aldrich, St. Louis, MO, USA). All culture media contained antibiotics: 100 U/mL penicillin (Sigma-Aldrich, St. Louis, MO, USA) and 100 µg/mL streptomycin (Polfa-Tarchomin, Warsaw, Poland). Both cell lines were cultured during the entire experiment in a humid atmosphere at 37 °C and 5% CO2. Amistar 250 SC (fungicide) with active compound azoxystrobin was provided by the Institute of Soil Science and Plant Cultivation, National Research Institute in Pulawy, Department of Weed Science and Tillage Systems in Wroclaw, Poland […].
Twenty-four hours prior to the applications of the tested compounds, MCF-10A and Balb/3T3 cells were plated in 96-well plates at a density of 10^4 cells per well and cultured at 37 °C in a humid atmosphere saturated with 5% CO2 for 24 h. Stock solutions of the compounds were prepared ex tempore for each test by dissolving in DMSO. The cells were also exposed to the reference drugs: cis-platin (Accord, London, UK) (10–0.01 µg/mL) and DMSO (Sigma-Aldrich) (at the concentrations corresponding to those in the tested agent dilutions). The solutions were then diluted in culture medium RPMI 1640 + Opti-MEM (1:1) (both from Gibco, Scotland, UK), supplemented with 2 mM l-glutamine, 5% fetal bovine serum (all from Sigma-Aldrich Chemie GmbH, Steinheim, Germany). An assay was performed after 72 h of exposure to the tested compounds 13, 17, 18, 19, 25, 27, 30, 4-hba, 4-hbah, and 3,4,5-hba (0.5, 5.0, 50, and to 500 µM) and azoxystrobin fungicide (0.05, 0.5, 5.0 and 50 µM). The antiproliferative effect in vitro was determined by the SRB method (sulforhodamine B colorimetric assay). The optical densities of the samples were measured on the Synergy H4 photometer (BioTek Instruments, Winooski, VT, USA) at 540 nm. The results were calculated as 50% inhibitory concentration (IC50), namely the dose of the tested compound inhibiting proliferation of the tested cells by 50% as compared to the untreated control cells, in the Prolab-3 system based on Cheburator 0.4 software using the two-point method. Each test was repeated 3–5 times.
Cytotoxicity was performed on two normal cell lines: MCF -10A and Balb/3T3, using as controls cis-platin in the concentrations of 0.03 32, 0.3 32, 3.32 and 33.2 µM and azoxystrobin fungicide in the […]
were tested in the concentrations of 0.5, 5.0, 50, and 500 µM. The relation of compound concentration […]
Further, a comparison of the influence of each tested concentration in the group of tested compounds on cell lines was illustrated in Figure S130 a (MCF-10A) and b (Balb/T3T).
Table S4. Cytotoxicity results for compounds 13, 17, 18, 19, 25, 27, and 30 investigated on normal mammalian lines: MCF -10A and B alb/3T3 using Azoxystrobin (fungicide) and cis-platin as reference compounds.
Cytotoxicity profile presented as proliferation inhibition, % (y -axis) in the function of compound concentration, […]
Structure MCF-10A Balb/3T3
Proliferation inhibition [%] […]

[2] = tested on: sunflower (Helianthus annuus L.) seeds; assay: Phytotest 1: phytotoxicity, seed germination and root growth; type: in vivo; details: 50 µg/mL; versus water–ethanol 0.5% (v/v) control; <90% inhibition, 90–110% no effect, >110% stimulation
Excerpt: In the experiments with plants, two aspects were taken under consideration: (1) phytotoxicity, which determined the toxicity of the hydrazide–hydrazones on seed germination and root growth, and (2) study on the behavior of seeds in the presence of the tested hydrazide–hydrazones and pathogens producing laccase (B. cinerea and S. sclerotiorum). The non-coated seeds of Linum usitatissimum, Helianthus annuus, and Brassica napus var. napus were provided by the Institute of Soil Science and Plant Cultivation, National Research Institute in Pulawy, Department of Weed Science and Tillage Systems, and Institute of Technology and Life Sciences–National Research Institute Falenty (Poland). Both phytotests were performed based on direct-contact microbiotests following the protocol recommended by the manufacturer (PhytotestkitTM, MicroBio Tests, Mariakerke, Belgium) with the authors’ modifications.
The main phytotest equipment (Tigret, Warsaw, Poland) and general methods are described as follows. Test plates (21 × 15.5 × 0.8 cm) provide optimal moisture and enable observation of seed germination and data reading at the end of the test. A single plate is made of polyvinylchloride and composed of both a transparent bottom and a covering part that are stuck together by a set of press buttons. […] Such prepared wet support was covered with a black filter paper that soaked the solution and was applied for further testing.
In the assay of phytotoxicity (1), the seeds of three dicota plants were used, namely ten seeds of flax or rapeseed and six seeds of sunflower. The seeds were transferred directly on the filter surface by placing them along the line at approximately 1 cm from the ridge at equal distances. Then, the seeds on the filter surface were covered with a covering part and placed in a holder.
All test plates were put vertically in a special incubator to allow free germination and growth of roots at 25 °C through 5 days in the dark. The test was performed in triplicate for each test plant. The results were expressed as the germination index values (GI, Equation (2)) concerning the plant growth controls in water–ethanol solution for (1). […] The GI was calculated from the formula and categorized as an inhibition for GI values < 90%, as stimulation > 110%, and between 90 and 110% as non-toxic/no effect as proposed in the literature. (2) GI,%=Gs×Ls/Gc×Lc×100% where Gs is seed germination (%), Ls is root elongation (mm) for the test plate, and Gc and Lc are corresponding values for the control plates. Gc was calculated as the proportion of germinated seeds in the test in relation to the number of germinated seeds in the control. The control was the representative number of seeds that germinated on a medium with 0.5% (v/v) of ethanol.

Row | Structure (SMILES) | Ki [1] [µM] | IC50 (MCF-10A cells) [µM] | Germination index (GI), sunflower, test 1 [2]
1 | COc1cc(/C=N/NC(=O)c2ccc(O)cc2)ccc1O [compound 17] | 251 | 275 ± 41.5 | –
2 | CC(C)(C)c1cccc(/C=N/NC(=O)c2ccc(O)cc2)c1O [compound 18] | 24 | 6.41 ± 2.05 | no effect
3 | Cc1cc(/C=N/NC(=O)c2ccc(O)cc2)c(O)c(CO)c1 [compound 25] | ≥ 1000 | 27.5 ± 1.83 | non-toxic
4 | O=C(N/N=C/c1cccc(-c2ccccc2)c1O)c1ccc(O)cc1 [compound 19] | 25.3 | 3.44 ± 0.83 | no effect
5 | O=C(N/N=C/c1cc(O)ccc1O)c1ccc(O)cc1 [compound 13] | – | 213 ± 34.1 | 87%
6 | Cc1cc(/C=N/NC(=O)c2ccc(O)cc2)c(O)c(C(C)(C)C)c1 [compound 30] | 26.4 | 8.85 ± 5.47 | 67%
7 | CC(C)(C)c1cc(/C=N/NC(=O)c2ccc(O)cc2)c(O)c(C(C)(C)C)c1 [compound 27] | 17.9 | 7.73 ± 1.08 | 82%
